Results reported in the supplement of paper PMC8967900.

Legend:
Test in all cases: selective drug sensitivity score (sDSS, relative to normal bone marrow) (sDSS (score)); higher = more potent and effective on the cell line relative to normal bone marrow cells
Details in all cases: 72 h
P30-OHKUBO = system: P30-OHKUBO
RPMI-8402 = system: RPMI-8402
COG-LL-317 = system: COG-LL-317
MHH-CALL-4 = system: MHH-CALL-4
MOLT-4 = system: MOLT-4
NALM-6 = system: NALM-6
PF-382 = system: PF-382
CCRF-HSB2 = system: CCRF-HSB2
MHH-CALL-2 = system: MHH-CALL-2
TANOUE = system: TANOUE
KOPN-8 = system: KOPN-8
MHH-CALL-3 = system: MHH-CALL-3
COG-LL-402h = system: COG-LL-402h
NALM-16 = system: NALM-16
HAL-01 = system: HAL-01
KARPAS-45 = system: KARPAS-45
697 = system: 697
ALL-PO = system: ALL-PO
RCH-ACV = system: RCH-ACV
SEM cells = system: SEM cells
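Further: ALL cell lines in 384-well plates, five doses spanning 10,000-fold, each plate scaled between vehicle and 100 µmol/L benzalkonium chloride controls, sDSS an adapted area-under-curve metric.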

SMILES	selective drug sensitivity score (P30-OHKUBO)	selective drug sensitivity score (RPMI-8402)	selective drug sensitivity score (COG-LL-317)	selective drug sensitivity score (MHH-CALL-4)	selective drug sensitivity score (MOLT-4)	selective drug sensitivity score (NALM-6)	selective drug sensitivity score (PF-382)	selective drug sensitivity score (CCRF-HSB2)	selective drug sensitivity score (MHH-CALL-2)	selective drug sensitivity score (TANOUE)	selective drug sensitivity score (KOPN-8)	selective drug sensitivity score (MHH-CALL-3)	selective drug sensitivity score (COG-LL-402h)	selective drug sensitivity score (NALM-16)	selective drug sensitivity score (HAL-01)	selective drug sensitivity score (KARPAS-45)	selective drug sensitivity score 697	selective drug sensitivity score (ALL-PO)	selective drug sensitivity score (RCH-ACV)	selective drug sensitivity score (SEM cells)
O=C1CCc2c(Oc3ccc4c(c3)[C@@H]3[C@H](O4)[C@H]3c3nc4cc(C(F)(F)F)ccc4[nH]3)ccnc2N1 [Lifirafenib (BGB-283)] (top concentration 10000 nM)	5.28	2.28	2.28	7.58	1.38	5.58	3.18	8.88	4.88	0.48	13.1	0.68	2.38	-0.02	6.48	2.88	6.68	6.98	10.3	15.7
CC(C)(C)c1cc(NC(=O)Nc2ccc(Oc3ccnc4[nH]c(=O)cnc34)cc2F)n(-c2ccccc2)n1 (top concentration 25000 nM)	-0.08	-3.18	-2.18	0.42	-2.98	-0.98	-3.88	3.12	-1.48	-5.68	2.22	-3.58	-1.78	-2.78	2.02	-1.48	4.72	5.72	3.82	11.4
Nc1ncnc2c1c(-c1cccc(OCc3ccccc3)c1)cn2[C@H]1C[C@@H](CN2CCC2)C1 [NVP-AEW541] (top concentration 10000 nM)	-2.02	-1.32	-2.32	0.08	-3.22	-4.02	-1.52	-0.62	3.28	-6.02	-2.62	-7.62	-0.72	-1.42	0.58	-0.92	-2.72	3.98	1.18	1.38
O=C(CCCCCCNC(=O)c1cnc(N(c2ccccc2)c2ccccc2)nc1)NO [Rocilinostat] (top concentration 10000 nM)	5.04	4.64	5.14	3.74	5.04	4.84	4.84	6.54	11.2	-0.26	13.8	14.5	8.14	3.34	-0.56	10	5.84	5.84	9.24	4.74
CNc1ncc2cc(-c3cc(NC(=O)NCCC(C)(C)C)c(F)cc3C)c(C)nc2n1 (top concentration 10000 nM)	5.86	0.66	-0.24	8.96	6.26	6.66	9.66	20.2	9.76	-2.84	21.3	8.66	6.76	1.76	4.66	5.26	10.5	4.86	12.7	5.66
C=CC(=O)N1CC/C(=C\c2ccc(F)c([N+](=O)[O-])c2)C(=O)/C(=C/c2ccc(F)c([N+](=O)[O-])c2)C1 [VLX1570] (top concentration 10000 nM)	1.88	-6.52	2.78	-1.22	-5.62	4.08	-1.72	-2.12	-3.32	-6.32	3.88	5.98	5.28	-3.72	-2.52	-1.02	-1.02	0.38	1.58	3.38
FC(F)(F)c1ccc(CNc2ccc(Cc3c[nH]c4ncc(Cl)cc34)cn2)cn1 [Pexidartinib] (top concentration 10000 nM)	4.48	0.58	-0.52	-2.22	-1.92	0.18	-1.22	1.38	-0.92	-2.22	0.68	-2.22	-2.22	-1.22	2.08	-0.02	3.18	6.68	1.58	12.6
CNC(=O)c1cccc(-c2ccc3c(N4CCOC[C@@H]4C)nc(N4CCOC[C@@H]4C)nc3n2)c1 [Vistusertib] (top concentration 10000 nM)	11.7	5.52	2.12	5.82	3.12	3.92	7.02	5.42	9.52	-2.78	19.7	2.12	9.12	2.22	5.12	5.02	15.1	10	24.5	4.82
CCn1c(-c2nonc2N)nc2c(C#CC(C)(C)O)ncc(OC[C@H]3CCCNC3)c21 (top concentration 10000 nM)	3.88	6.48	14.8	2.98	8.68	8.78	4.48	0.88	3.48	-1.12	7.08	3.38	8.28	2.68	-0.62	6.28	8.28	8.18	17.1	5.28
CC(C)[C@H]1C(=O)N[C@@H](CCCNC(=N)N)C(=O)NCC(=O)N[C@@H](CC(=O)O)C(=O)N[C@H](Cc2ccccc2)C(=O)N1C [Cilengitide] (top concentration 10000 nM)	4.2	0	0	5.5	0	0	0	0	7.1	0	13.8	0	0	0	6.5	0	0	0	0	0
CC(C)(C)c1nc(-c2cccc(NS(=O)(=O)c3c(F)cccc3F)c2F)c(-c2ccnc(N)n2)s1 [Dabrafenib] (top concentration 2500 nM)	5.18	-1.12	0.18	3.08	-1.52	-0.52	0.38	4.48	9.18	0.48	8.48	-1.52	0.48	-1.52	1.18	2.18	11.5	-0.22	0.88	-1.52
CC(=O)c1cc2c(o1)C(=O)c1ccccc1C2=O [Napabucasin] (top concentration 20000 nM)	0.42	-6.08	-0.18	0.12	-1.28	-1.48	-0.28	0.12	3.72	-4.88	3.72	-3.28	-3.48	-11.8	-0.38	1.22	-0.88	0.92	-1.38	0.52
COc1cc2c(cc1-c1c(C)noc1C)ncc1[nH]c(=O)n([C@H](C)c3ccccn3)c12 [I-BET151] (top concentration 10000 nM)	7.16	4.36	6.56	5.96	-4.34	3.46	4.06	0.06	6.96	-2.84	11.8	14.3	5.46	2.06	1.26	9.16	9.36	6.36	12.3	10.5
CC(=O)c1c(C)c2cnc(Nc3ccc(N4CCNCC4)cn3)nc2n(C2CCCC2)c1=O [Palbociclib] (top concentration 10000 nM)	9.58	5.98	0.98	-1.82	1.08	3.68	5.48	1.68	3.68	-6.12	16.5	5.38	8.78	1.98	1.48	3.68	14.3	4.08	16.1	4.98
O=C(/C=C/c1cccc(S(=O)(=O)Nc2ccccc2)c1)NO [Belinostat] (top concentration 10000 nM)	8	7.3	12.9	7.5	7.6	7.4	8.4	10.2	11	-4.5	17.8	17.5	12.6	2.5	5.6	14.8	10.1	11.4	14.3	7.6
Nc1ccn([C@@H]2O[C@H](CO)[C@@H](O)C2(F)F)c(=O)n1 [Gemcitabine] (top concentration 1000 nM)	18	9.56	20.4	12.9	10.4	14.5	13.5	22	21.6	-7.34	26.4	13.4	18.6	8.06	20.4	-7.44	21	8.06	18.5	24.9
Cc1nc(Nc2n[nH]c3c2CN(C(=O)N[C@H](CN(C)C)c2ccccc2)C3(C)C)c2sccc2n1 (top concentration 10000 nM)	12	6.38	18.6	0.88	-1.22	1.18	1.98	11.1	0.38	-11.1	18.3	0.18	6.18	2.58	-10.5	9.48	16.4	5.58	22.7	2.28
Cn1cc(-c2[nH]c3cc(NC(=O)[C@H](N)C4CCCCC4)cc4c3c2C=NNC4=O)cn1 (top concentration 10000 nM)	9.08	9.68	6.08	0.88	3.38	6.28	4.48	6.98	3.48	-5.22	7.38	0.38	7.08	3.98	-6.52	6.78	9.38	9.28	11.5	7.28
